From US12262725B2, “Improving taste profile of orange juice” (SYMRISE AG, priority 2015, dated 2025)

How the values were obtained:
Type in all cases: in vivo
[1] = Masking of typical bitter substances from citrus products; bitterness rated by a group of experts; settings: for Assessment Bitter (0-10) With neoflavonoid: amount of neoflavonoid not given; for Relative masking (bitter): with vs without neoflavonoid
Source text: Masking of Typical Bitter Substances from Citrus Products
For quantifying the reduction (i.e. the masking or the decrease) of the bitter impression in a sample, the bitterness of a solution containing the bitter substances named in the following Table 2 in column 1 were each compared with a sample, which contained the corresponding bitter substance and additionally the respectively specified amount of a neoflavonoid (column 2) by a group of experts (classification: 1 [not bitter] to 10 [extremely bitter]). For the analysis, i. e. the calculation of the reduction (in %) of the bitter impression, the respective average values of the assessments of the group of experts were used.

[2] = Masking the perception of the acid and the bitterness in orange juice; panelists rate sweet, bitter and sour on a 0-10 scale; settings: for Assessment (0-10) Bitter / Assessment (0-10) Sour / Assessment (0-10) Sweet: scale 0-10
Source text: The panelists (n=6-8) thereby evaluate the 3 attributes “sweet”, “bitter” and “sour” on an unstructured scale of 0 (no taste) to 10 (strong taste). In one sample, the panelists receive the orange juice alone, in a further sample, they received the orange juice which was supplemented with an amount of neoflavonoids as listed in one of the tables. Thereby, the order is arbitrary and not known to the panelists before.
In the following Tables 1A to 1D, the results of the evaluations are summed up.

[3] = Masking of the perception of the acid in citrus containing carbonated drinks; panelists rate sour on a 0-10 scale
Source text: Masking of the Perception of the Acid in Citrus Containing Carbonated Drinks
For quantifying the reduction (i. e. the masking or the decrease) of the perception of the acid in a sample, the panelists (n=6-8) assess the attribute “sour” on a non-structured scale from 0 (no taste)-10 (strong taste). The panelists receive in one sample the citrus/-lime soft drink reduced in sugar alone, in a further sample the soft drink, to which an amount of neoflavonoids specified in Table 3 has been added. Thereby, the order is arbitrary and not known to the panelists before. In the following Table, the results of the evaluations are summed up.

[4] = HLB Hamlin orange juice, 15 ppm neoflavonoid vs juice alone
[5] = Orange juice comprising 7.8 ppm limonin, 10 ppm neoflavonoid vs juice alone
[6] = Orange juice comprising 7.8 ppm limonin, 10 ppm neoflavonoid, n=6-8
[7] = Orange juice, oranges infected with HLB from early ripening Hamlin March 2014, 15 ppm neoflavonoid, n=6-8
[8] = Trial 1B, orange juice comprising 7 ppm limonin, 20 ppm neoflavonoid vs juice alone
[9] = Trial 1B, orange juice comprising 7 ppm limonin, 20 ppm neoflavonoid
[10] = Trial 1C, orange juice comprising 7 ppm limonin, 25 ppm neoflavonoid vs juice alone
[11] = Trial 1C, orange juice comprising 7 ppm limonin, 25 ppm neoflavonoid
[12] = Trial 1D, orange juice comprising 7 ppm limonin, 25 ppm neoflavonoid vs juice alone
[13] = Trial 1D, orange juice comprising 7 ppm limonin, 25 ppm neoflavonoid

SMILES: COc1cc(C2CC(=O)Oc3cc(O)cc(O)c32)ccc1O (stereo not shown) [1:1 mixture from component 9 and 10, 5,7-dihydroxy-4-(4-hydroxy-3-methoxy-phenyl)chroman-2-on]
- Assessment Bitter (0-10) With neoflavonoid ([1]; solution of 10 ppm limonin): 2.5
- Relative masking (bitter) ([1]; solution of 10 ppm limonin): −19%
- Assessment Bitter (0-10) With neoflavonoid ([1]; solution of 50 ppm poncirin): 3.5
- Relative masking (bitter) ([1]; solution of 50 ppm poncirin): −29%
- Assessment Bitter (0-10) With neoflavonoid ([1]; solution of 75 ppm naringin): 2.9
- Relative masking (bitter) ([1]; solution of 75 ppm naringin): −24%
- Relative change Bitter [2, 4]: −36%
- Relative change Sour [2, 4]: −19%
- Relative change Sweet [2, 4]: +22%
- Relative change Bitter [2, 5]: −46%
- Relative change Sour [2, 5]: −35%
- Relative change Sweet [2, 5]: +52%
- Assessment (0-10) Bitter [2, 6]: 2.5
- Assessment (0-10) Sour [2, 6]: 3.5
- Assessment (0-10) Sweet [2, 6]: 6.0
- Assessment (0-10) Bitter [2, 7]: 2.7
- Assessment (0-10) Sour [2, 7]: 3.5
- Assessment (0-10) Sweet [2, 7]: 3.8

SMILES: O=C1CC(c2ccc(O)cc2)c2c(O)cc(O)cc2O1 (stereo not shown) [1:1 mixture from component 11 and 12, 5,7-dihydroxy-4-(4-hydroxyphenyl)-chroman-2-on]
- Assessment Bitter (0-10) With neoflavonoid ([1]; solution of 10 ppm limonin): 2.8
- Relative masking (bitter) ([1]; solution of 10 ppm limonin): −38%
- Assessment Bitter (0-10) With neoflavonoid ([1]; solution of 50 ppm poncirin): 3.6
- Relative masking (bitter) ([1]; solution of 50 ppm poncirin): −8%
- Assessment Bitter (0-10) With neoflavonoid ([1]; solution of 75 ppm naringin): 3.7
- Relative masking (bitter) ([1]; solution of 75 ppm naringin): −18%
- Relative change Bitter [2, 8]: −45%
- Relative change Sour [2, 8]: −33%
- Relative change Sweet [2, 8]: +13%
- Assessment (0-10) Bitter [2, 9]: 2.8
- Assessment (0-10) Sour [2, 9]: 3.1
- Assessment (0-10) Sweet [2, 9]: 4.8

SMILES: O=C1CC(c2ccc(O)cc2)c2ccc(O)cc2O1 (stereo not shown) [1:1 mixture from component 29 and 30, 7-hydroxy-4-(4-hydroxy-phenyl)-chroman-2-on]
- Relative change Bitter [2, 10]: −45%
- Relative change Sour [2, 10]: −33%
- Relative change Sweet [2, 10]: +13%
- Assessment (0-10) Bitter [2, 11]: 2.4
- Assessment (0-10) Sour [2, 11]: 3.0
- Assessment (0-10) Sweet [2, 11]: 5.3

SMILES: COc1cc(C2CC(=O)Oc3cc(O)cc(OC)c32)ccc1O (stereo not shown) [1:1 mixture from component 41 and 42, 7-hydroxy-4-(4-hydroxy-3-methoxy-phenyl)-5-methoxy-chroman-2-on]
- Relative masking (sour) ([3]; Carbonated soft drink (7° Brix, 0.2% citric acid), with vs without neoflavonoid, p < 0.1): −17%
- Assessment Sour (0-10) With neoflavonoid ([3]; Carbonated soft drink (7° Brix, 0.2% citric acid, 0.0001% citrus oil, 0.0001% lime oil, 0.06% citrus aroma), n=6-8): 3.4
- Assessment Bitter (0-10) With neoflavonoid ([1]; solution of 100 ppm naringin): 3.7
- Relative masking (bitter) ([1]; solution of 100 ppm naringin): −15%
- Relative change Bitter [2, 12]: −43%
- Relative change Sour [2, 12]: −13%
- Relative change Sweet [2, 12]: +43%
- Assessment (0-10) Bitter [2, 13]: 2.7
- Assessment (0-10) Sour [2, 13]: 3.7
- Assessment (0-10) Sweet [2, 13]: 5.9
